Experimental findings from patent publication US20150051246A1 (priority 2013, published 2015) are described below.

The assay concerns male Wistar rats. As to the kind of experiment: Object recognition task (ORT), scopolamine induced memory deficit. It is filed as in vivo. How it is done:
Memory acquisition processes are investigated using the object recognition test (ORT).
Twenty four 3-4 month old male Wistar rats (Charles River, Sulzfeld, Germany) were used for the study. All animals were housed individually in standard green line Tecniplast IVC cages on stardust bedding. The animals were housed on a reversed 12/12 h light/dark cycle (lights on from 07:00 pm to 07:00 am) and had free access to food and water. The rats were housed and tested in the same room. A radio, playing softly, provided background noise in the room. All testing was performed between 09:00 am and 06:00 pm.
Drugs were prepared daily, except as indicated otherwise. Roflumilast (Takeda, Konstanz, Germany, MW 403.21) was dissolved in 98% methylcellulose solution (0.5% methylcellulose) and 2% Tween 80. Roflumilast in doses of 0 (vehicle), 0.0001, 0.0003, 0.001, 0.003, 0.01 and 0.03 mg/kg was administered intraperitonally (ip, injection volume 1 ml/kg). […] All compounds were administered 30 min before T1.
The testing order of conditions was determined randomly. The experimenter was blind of testing protocol. A within design was used and all treatment conditions were balanced over rats. The ORT was performed as described elsewhere (Ennaceur and Delaceur, 1988, Behav Brain Res, Vol 31, pp 47-59; Akkerman et al; 2012, Behav Brain Res, Vol 232, pp 335-347). The apparatus consisted of a circular arena, 83 cm in diameter. The back half of the 40 cm high wall was made of grey PVC and the front was made of transparent PVC. Fluorescent red tubes and a light bulb provided a constant illumination of about 20 lux on the floor of the apparatus. The light intensity was equal in the different parts of the apparatus.
Two objects were placed in symmetrical positions at the mid-line between the gray and transparent halves of the arena, about ten centimeters away from wall. Four different sets of objects were available: 1) a standard 1 L brown transparent glass bottle (diameter 10 cm, height 22 cm) filled with water, 2) a metal cube (10.0×5.0×7.5 cm) with two holes (diameter 1.9 cm), 3) a cone consisting of a gray PVC base (maximal diameter 18 cm) with a collar on top made of brass (total height 16 cm), and 4) an aluminum cube with a tapering top (13.0×8.0×8.0 cm). Objects were presented to the animals in a balanced manner to avoid object or place biases. Rats were unable to displace the objects.
A test session comprised two trials, each with durations of 3 min. During the learning trial (T1) the apparatus contains two identical objects (object a1 and a2). Rats were always introduced into the apparatus with their nose towards the transparent wall segment (i.e. facing outwards to the front of the arena). Subsequently, rats were put back in its home cage for a 1 h interval. After the retention interval, rats were put back into the arena for the […] (T2). In T2, the two objects from T1 were replaced by one identical copy (a3) and a different novel object (b). The times spent in exploring each object during T1 and T2 were recorded manually on a personal computer.
Exploration was defined in the following manner: directing the nose to the object at a distance of no more than 2 cm and/or touching the object with the nose. Sitting on the object was not considered as exploratory behavior. In order to avoid the presence of olfactory cues, the objects were thoroughly cleaned with a 70% ethanol solution before each trial.
Prior to compound testing, the animals were handled for 5 min on 2 consecutive days and allowed to explore the ORT arena, also for 5 min. Subsequently, the animals were accustomed to the complete ORT testing procedure without receiving any injection.
The readout parameters of the object recognition task are the times that rats spent on exploring each object during T1 and T2. The exploration time (in seconds) of each object during T1 are presented as “a1” and “a2”.

Turning to `O=C(Nc1c(Cl)cncc1Cl)c1ccc(OC(F)F)c(OCC2CC2)c1` [roflumilast, N-(3,5-dichloropyridin-4-yl)-3-cyclopropylmethoxy-4-difluoromethoxybenzamide], the “effect on memory performance (in words)” value runs as follows: (0.0001 mg/kg ip, scopolamine deficit) “no effect on memory performance”; (0.0003 mg/kg and 0.001 mg/kg, scopolamine deficit) “intermediate memory improvement”. For the same molecule, the “effect on memory function (in words)” value (doses of 0.003 mg/kg and higher, scopolamine deficit) was “fully restore memory function”; the “effect on memory function (in words)” value (single ip dose 0.003 mg/kg, scopolamine deficit) is reported as “fully restore spatial memory function”; the “effect on memory function (in words)” value (single ip doses 0.01, 0.03, 0.001 and 0.0003 mg/kg) is recorded as “increasingly less efficacy”. The d2 is, setting by setting: (rat, in vivo) 0.34; (roflumilast 0.0001 mg/kg ip + scopolamine 0.1 mg/kg, 1 h retention) 0.05; (roflumilast 0.0003 mg/kg ip + scopolamine 0.1 mg/kg, 1 h retention) 0.16; (roflumilast 0.001 mg/kg ip + scopolamine 0.1 mg/kg, 1 h retention) 0.27; (roflumilast 0.003 mg/kg ip + scopolamine 0.1 mg/kg, 1 h retention) 0.43; (roflumilast 0.03 mg/kg ip + scopolamine 0.1 mg/kg, 1 h retention) 0.30. The d2 (scopolamine 0.1 mg/kg + roflumilast 0.0001 mg/kg ip, rof + dpz study) is given as 0.04.
